From US20100267561A1, “HERBICIDAL PYRIDAZINONE DERIVATIVES” (priority 2007, published 2010)

What was measured:
Assay in all cases: Test B pre-/postemergence plant response
Format in all cases: in vivo
[1] = system: wheat (Triticum aestivum); conditions: for Wheat plant response rating: 8 g ai/ha
In short: (§1)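 Visual scoring from 0 (no effect) to 100 (complete control) against untreated controls was done 13 to 15 days after greenhouse treatment. Chemicals were formulated in a surfactant-containing non-phytotoxic solvent and applied to soil preemergence or to 1- to 4-leaf (2-18 cm) plants postemergence.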

[2] = system: downy bromegrass (Bromus tectorum); conditions: for Bromegrass, Downy plant response rating: 8 g ai/ha
In short: as §1

[3] = system: common (oilseed) sunflower (Helianthus annuus); conditions: Preemergence
In short: as §1

[4] = system: green foxtail (Setaria viridis); conditions: for Foxtail, Green plant response rating: 8 g ai/ha
In short: as §1

[5] = system: large crabgrass (Digitaria sanguinalis); conditions: for Crabgrass, Large plant response rating: 8 g ai/ha
In short: as §1

corn (Zea mays) = conditions: for Corn plant response rating: 8 g ai/ha
In short: as §1

[6] = system: blackgrass (Alopecurus myosuroides); conditions: for Blackgrass plant response rating: 8 g ai/ha
In short: as §1

[7] = system: morningglory (Ipomoea coccinea); conditions: for Morningglory plant response rating: 8 g ai/ha
In short: as §1

[8] = system: velvetleaf (Abutilon theophrasti); conditions: for Velvetleaf plant response rating: 8 g ai/ha
In short: as §1

[9] = system: bermudagrass (Cynodon dactylon); conditions: for Bermudagrass plant response rating: 8 g ai/ha
In short: as §1

[10] = system: lambsquarters (Chenopodium album); conditions: for Lambsquarters plant response rating: 8 g ai/ha
In short: as §1

[11] = system: catchweed bedstraw (Galium aparine); conditions: Preemergence
In short: as §1

wild oat (Avena fatua) = conditions: for Oat, Wild plant response rating: 8 g ai/ha
In short: as §1

[12] = system: giant foxtail (Setaria faberii); conditions: for Foxtail, Giant plant response rating: 8 g ai/ha
In short: as §1

[13] = Postemergence, 16 g ai/ha, scale 0 to 100
[14] = Postemergence, 62 g ai/ha, scale 0 to 100, 0 no effect, 100 complete control
[15] = Preemergence, 16 g ai/ha, scale 0 to 100 (0 no effect, 100 complete control)
[16] = Preemergence, 31 g ai/ha, scale 0 to 100 (0 no effect, 100 complete control)
[17] = Preemergence, 62 g ai/ha, 0 to 100 scale, 0 no effect, 100 complete control
[18] = Postemergence, 31 g ai/ha, scale 0 to 100, 0 no effect, 100 complete control
[19] = Preemergence, 31 g ai/ha, 0 to 100 scale, 0 no effect, 100 complete control
[20] = Preemergence, 62 g ai/ha, scale 0 to 100
[21] = 16 g ai/ha, scale 0 to 100 (0 no effect, 100 complete control)

CCc1cc(-c2ccc(Cl)cc2)nn1-c1c(OC(=O)OC(C)C)cnn(C)c1=O [Compound 41]
15: Plant response rating, Wheat [1, 15]
25: Plant response rating, Bermudagrass [9, 18]
95: Plant response rating, Corn (corn (Zea mays); [18]) | Plant response rating, Corn (corn (Zea mays); [14]) | Plant response rating, Corn (corn (Zea mays); [20]) | Plant response rating, Blackgrass [6, 18] | Plant response rating, Blackgrass [6, 14] | Blackgrass plant response rating ([6]; Preemergence, scale 0 to 100) | Plant response rating, Bermudagrass [9, 14] | Plant response rating, Oat, Wild (wild oat (Avena fatua); [16]) | Plant response rating, Oat, Wild (wild oat (Avena fatua); [20])
60: Plant response rating, Wheat [1, 16] | Plant response rating, Bromegrass, Downy [2, 18]
98: Plant response rating, Foxtail, Giant [12, 20]
0: Plant response rating, Sunflower [3, 21] | Plant response rating, Sunflower ([3]; 31 g ai/ha, scale 0 to 100 (0 no effect, 100 complete control)) | Plant response rating, Sunflower ([3]; 62 g ai/ha, scale 0 to 100) | Sunflower plant response rating ([3]; 8 g ai/ha, scale 0 to 100) | Plant response rating, Crabgrass, Large [5, 15] | Plant response rating, Crabgrass, Large [5, 19] | Crabgrass, Large plant response rating ([5]; Preemergence, scale 0 to 100) | Morningglory plant response rating ([7]; postemergence, 0-100 scale) | Plant response rating, Morningglory [7, 13] | Plant response rating, Morningglory [7, 18] | Plant response rating, Morningglory [7, 14] | Plant response rating, Morningglory [7, 15] | Plant response rating, Morningglory [7, 16] | Plant response rating, Morningglory [7, 20] | Morningglory plant response rating ([7]; Preemergence, scale 0 to 100) | Velvetleaf plant response rating ([8]; postemergence, 0-100 scale) | Plant response rating, Velvetleaf [8, 13] | Plant response rating, Velvetleaf [8, 14] | Plant response rating, Velvetleaf [8, 15] | Plant response rating, Velvetleaf [8, 16] | Plant response rating, Velvetleaf [8, 17] | Velvetleaf plant response rating ([8]; Preemergence, scale 0 to 100) | Bermudagrass plant response rating ([9]; postemergence, 0-100 scale) | Plant response rating, Bermudagrass [9, 13] | Bermudagrass plant response rating ([9]; Preemergence, scale 0 to 100 (0 no effect, 100 complete control)) | Plant response rating, Bermudagrass [9, 15] | Plant response rating, Bermudagrass [9, 19] | Plant response rating, Bermudagrass [9, 20] | Lambsquarters plant response rating ([10]; postemergence, 0-100 scale) | Plant response rating, Lambsquarters [10, 13] | Plant response rating, Lambsquarters [10, 18] | Plant response rating, Lambsquarters [10, 14] | Plant response rating, Lambsquarters [10, 15] | Plant response rating, Lambsquarters [10, 19] | Plant response rating, Lambsquarters [10, 20] | Lambsquarters plant response rating ([10]; Preemergence, scale 0 to 100) | Plant response rating, Galium [11, 21] | Galium plant response rating ([11]; 8 g ai/ha, scale 0 to 100) | Plant response rating, Foxtail, Giant [12, 15] | Plant response rating, Foxtail, Giant [12, 19] | Foxtail, Giant plant response rating ([12]; Preemergence, scale 0 to 100)
45: Corn plant response rating (corn (Zea mays); Preemergence, scale 0 to 100)
85: Plant response rating, Wheat [1, 13] | Plant response rating, Wheat [1, 14] | Plant response rating, Bromegrass, Downy [2, 14] | Foxtail, Green plant response rating ([4]; postemergence, 0-100 scale) | Plant response rating, Crabgrass, Large [5, 13] | Corn plant response rating (corn (Zea mays); postemergence, 0-100 scale) | Plant response rating, Corn (corn (Zea mays); [13]) | Plant response rating, Corn (corn (Zea mays); [19]) | Blackgrass plant response rating ([6]; postemergence, 0-100 scale) | Plant response rating, Oat, Wild (wild oat (Avena fatua); [15])
10: Wheat plant response rating ([1]; Preemergence, scale 0 to 100)
20: Plant response rating, Crabgrass, Large [5, 20]
65: Plant response rating, Corn (corn (Zea mays); [15])
100: Plant response rating, Wheat [1, 17] | Plant response rating, Foxtail, Green [4, 13] | Plant response rating, Foxtail, Green [4, 18] | Plant response rating, Foxtail, Green [4, 14] | Plant response rating, Foxtail, Green [4, 15] | Plant response rating, Foxtail, Green [4, 19] | Plant response rating, Foxtail, Green [4, 20] | Foxtail, Green plant response rating ([4]; Preemergence, scale 0 to 100) | Plant response rating, Crabgrass, Large [5, 18] | Plant response rating, Crabgrass, Large [5, 14] | Plant response rating, Blackgrass [6, 15] | Plant response rating, Blackgrass [6, 19] | Plant response rating, Blackgrass [6, 20] | Plant response rating, Galium ([11]; 62 g ai/ha, scale 0 to 100) | Oat, Wild plant response rating (wild oat (Avena fatua); postemergence, 0-100 scale) | Plant response rating, Oat, Wild (wild oat (Avena fatua); [13]) | Plant response rating, Oat, Wild (wild oat (Avena fatua); [18]) | Plant response rating, Oat, Wild (wild oat (Avena fatua); [14]) | Foxtail, Giant plant response rating ([12]; postemergence, 0-100 scale) | Plant response rating, Foxtail, Giant [12, 13] | Plant response rating, Foxtail, Giant [12, 18] | Plant response rating, Foxtail, Giant [12, 14]
90: Plant response rating, Blackgrass [6, 13]
80: Wheat plant response rating ([1]; postemergence, 0-100 scale) | Plant response rating, Bromegrass, Downy [2, 20]
30: Bromegrass, Downy plant response rating ([2]; postemergence, 0-100 scale)
50: Plant response rating, Bromegrass, Downy [2, 13] | Plant response rating, Galium ([11]; 31 g ai/ha, 0 to 100 scale, 0 no effect, 100 complete control)
75: Plant response rating, Bromegrass, Downy [2, 19]
70: Plant response rating, Bromegrass, Downy [2, 15] | Bromegrass, Downy plant response rating ([2]; Preemergence, scale 0 to 100) | Crabgrass, Large plant response rating ([5]; postemergence, 0-100 scale) | Oat, Wild plant response rating (wild oat (Avena fatua); Preemergence, scale 0 to 100)
